In brackets after ≈: the same amount, converted by molar mass. Where two headings read alike, the source gives them in different places. Starred links: 1 amine or outer side, 2 acyl side, 3 side chain; linkers in the order of their positions; H or OH if unused. Positions of bridges follow the written chain, without caps; N, C: chain ends. Non-standard residues stand in square brackets, D forms with d. Residues, ends and D or L forms follow the SMILES beside them. *: point of attachment. hTyr(3S-OH,4S-OH,3'-OSO3H) = N[C@H](C(=O)O)[C@H](O)[C@@H](O)c1ccc(O)c(OS(=O)(=O)O)c1; Orn(4R-OH,5R-OH) = O=C([C@H](C[C@@H](O)[C@@H](O)N[*:3])N[*:1])[*:2]; Pro(3S-OH,4S-Me) = C[C@H]1CN[C@H](C(=O)O)[C@H]1O; X1 = CCCCCOc1ccc(-c2cc(-c3ccc(C(=O)*)cc3)no2)cc1; Gln(3R-OH) = NC(=O)C[C@@H](O)[C@H](N)C(=O)O; Hyp = O=C(O)[C@@H]1C[C@@H](O)CN1
What was measured:
Candida albicans SC5314 = conditions: 24 hr
[1] = tested on: A. fumigatus strain AF293; experiment: Murine model of pulmonary aspergillosis (Example 13), terminal lung burden; type: in vivo, Aspergillus fumigatus
Procedure: A secondary endpoint for the study was terminal lung tissue burden. Immediately following confirmation of death, carcasses were frozen at −20° C. prior to tissue dissection and processing. The frozen carcasses were thawed at room temperature and the lungs removed and placed into pre-weighed bead-beating tubes containing 2 mL of PBS and subjected to mechanical disruption. Organ homogenates were diluted further in PBS and quantitatively cultured for A. fumigatus onto SABC and incubated at 30° C. for 24-48 hours. In addition, a 300 μL aliquot of the undiluted lung tissue homogenate was stored at −80° C. for possible optional assessment of burden by qPCR.

Candida auris strains = experiment: Candida auris antifungal susceptibility testing (CLSI M27-A3), 38 strains; type: cell-based; conditions: for MIC: Candidozyma auris, read-out: MIC

## CCCCCOc1ccc(-c2cc(-c3ccc(C(=O)N[C@H]4C[C@@H](O)[C@@H](O)NC(=O)[C@@H]5[C@@H](O)[C@@H](C)CN5C(=O)[C@H]([C@H](O)CC(N)=O)NC(=O)[C@H]([C@H](O)[C@@H](O)c5ccc(O)c(OS(=O)(=O)O)c5)NC(=O)[C@@H]5C[C@@H](O)CN5C(=O)[C@H]([C@@H](C)O)NC4=O)cc3)no2)cc1 [Micafungin, micafungin] (X1-[Orn(4R-OH,5R-OH)]T[Hyp][hTyr(3S-OH,4S-OH,3'-OSO3H)][Gln(3R-OH)][Pro(3S-OH,4S-Me)]; lactam 1-C)
Candida albicans SC5314; micafungin IP 10 mg/kg
  CFU clearance: complete clearance was only observed with the 10 mg/kg dose
Candida albicans SC5314; micafungin IP 1, 3, 10 mg/kg
  CFU reduction: good dose response in CFU reduction
[1]; Micafungin 2 mg/kg IP Day 0
  Group Geometric mean (lung burden): 1.08 × 10^4 CFU/g
  Log10 Group Geometric mean (lung burden): 4.03 CFU/g
  Log10 reduction from vehicle control: −0.26 CFU/g
[1]; Micafungin 2 mg/kg IP Day −1
  Group Geometric mean (lung burden): 4.34 x 10^4 CFU/g
  Log10 Group Geometric mean (lung burden): 4.64 CFU/g
  Log10 reduction from vehicle control: −0.86 CFU/g
Candida auris strains
  number of resistant isolates: 4
Candida auris strains; 24 h, strain 1 VPCI 669/P/12, 24 h
  MIC: 0.125 µg/mL (≈ 0.0984 µM)
Candida auris strains; 24 h, strain 2 VCPI 671/P/12, 24 h
  MIC: 0.125 µg/mL (≈ 0.0984 µM)
Candida auris strains; 24 h, strain 3 VCPI 674/P/12, 24 h
  MIC: 0.06 µg/mL (≈ 0.0472 µM)
Candida auris strains; 24 h, strain 4 VCPI 683/P/12, 24 h
  MIC: 0.125 µg/mL (≈ 0.0984 µM)
Candida auris strains; 24 h, strain 5 VCPI 692/P/12, 24 h
  MIC: 0.125 µg/mL (≈ 0.0984 µM)
Candida auris strains; 24 h, strain 6 VCPI 712/P/12, 24 h
  MIC: 0.125 µg/mL (≈ 0.0984 µM)
Candida auris strains; 24 h, strain 7 VCPI 471/P/13, 24 h
  MIC: 0.25 µg/mL (≈ 0.197 µM)
Candida auris strains; 24 h, strain 8 VCPI 475/P/13, 24 h
  MIC: 0.125 µg/mL (≈ 0.0984 µM)
Candida auris strains; 24 h, strain 9 VCPI 478/P/13, 24 h
  MIC: 0.125 µg/mL (≈ 0.0984 µM)
Candida auris strains; 24 h, strain 10 VCPI 479/P/13, 24 h
  MIC: 0.125 µg/mL (≈ 0.0984 µM)
Candida auris strains; 24 h, strain 11 VCPI 480/P/13, 24 h
  MIC: 0.125 µg/mL (≈ 0.0984 µM)
Candida auris strains; 24 h, strain 12 VCPI 482/P/13, 24 h
  MIC: 0.125 µg/mL (≈ 0.0984 µM)
Candida auris strains; 24 h, strain 13 VCPI 483/P/13, 24 h
  MIC: 0.125 µg/mL (≈ 0.0984 µM)
Candida auris strains; 24 h, strain 14 VCPI 1130/P/13, 24 h
  MIC: 0.125 µg/mL (≈ 0.0984 µM)
Candida auris strains; 24 h, strain 15 VCPI 1132/P/13, 24 h
  MIC: 0.125 µg/mL (≈ 0.0984 µM)
Candida auris strains; 24 h, strain 16 VCPI 1133/P/13, 24 h
  MIC: 16 µg/mL (≈ 12.6 µM)
Candida auris strains; 24 h, strain 17 VCPI 105/P/14, 24 h
  MIC: 0.125 µg/mL (≈ 0.0984 µM)
Candida auris strains; 24 h, strain 18 VCPI 107/P/14, 24 h
  MIC: 0.06 µg/mL (≈ 0.0472 µM)
Candida auris strains; 24 h, strain 19 VCPI 510/P/14, 24 h
  MIC: 0.125 µg/mL (≈ 0.0984 µM)
Candida auris strains; 24 h, strain 20 VCPI 511/P/14, 24 h
  MIC: 0.125 µg/mL (≈ 0.0984 µM)
Candida auris strains; 24 h, strain 21 VCPI 512/P/14, 24 h
  MIC: 0.125 µg/mL (≈ 0.0984 µM)
Candida auris strains; 24 h, strain 22 VCPI 513/P/14, 24 h
  MIC: 0.125 µg/mL (≈ 0.0984 µM)
Candida auris strains; 24 h, strain 23 VCPI 514/P/14, 24 h
  MIC: 0.25 µg/mL (≈ 0.197 µM)
Candida auris strains; 24 h, strain 24 VCPI 250/P/14, 24 h
  MIC: 0.125 µg/mL (≈ 0.0984 µM)
Candida auris strains; 24 h, strain 25 VCPI 265/P/14, 24 h
  MIC: 16 µg/mL (≈ 12.6 µM)
Candida auris strains; 24 h, strain 26 VCPI 266/P/14, 24 h
  MIC: 0.125 µg/mL (≈ 0.0984 µM)
Candida auris strains; 24 h, strain 27 VCPI 462/P/14, 24 h
  MIC: 16 µg/mL (≈ 12.6 µM)
Candida auris strains; 24 h, strain 28 VCPI 463/P/14, 24 h
  MIC: 0.125 µg/mL (≈ 0.0984 µM)
Candida auris strains; 24 h, strain 29 VCPI 467/P/14, 24 h
  MIC: 0.25 µg/mL (≈ 0.197 µM)
Candida auris strains; 24 h, strain 31 VCPI 478/P/14, 24 h
  MIC: 0.5 µg/mL (≈ 0.394 µM)
Candida auris strains; 24 h, strain 32 VCPI 518/P/14, 24 h
  MIC: 0.25 µg/mL (≈ 0.197 µM)
Candida auris strains; 24 h, strain 33 VCPI 550/P/14, 24 h
  MIC: 0.25 µg/mL (≈ 0.197 µM)
Candida auris strains; 24 h, strain 34 VCPI 714/P/14, 24 h
  MIC: 0.125 µg/mL (≈ 0.0984 µM)
Candida auris strains; 24 h, strain 35 VCPI 717/P/14, 24 h
  MIC: 0.125 µg/mL (≈ 0.0984 µM)
Candida auris strains; 24 h, strain 36 VCPI 1060/P/14, 24 h
  MIC: 0.25 µg/mL (≈ 0.197 µM)
Candida auris strains; 24 h, strain 37 VCPI 74/P/15, 24 h
  MIC: 0.25 µg/mL (≈ 0.197 µM)
Candida auris strains; 24 h, strain 38 VCPI 213/P/15, 24 h
  MIC: 0.25 µg/mL (≈ 0.197 µM)
Candida auris strains; 24 h
  MIC: 16 µg/mL (≈ 12.6 µM)
Candida auris strains; 48 h, strain 1 VPCI 669/P/12, 48 h
  MIC: 0.25 µg/mL (≈ 0.197 µM)
Candida auris strains; 48 h, strain 2 VCPI 671/P/12, 48 h
  MIC: 0.25 µg/mL (≈ 0.197 µM)
Candida auris strains; 48 h, strain 3 VCPI 674/P/12, 48 h
  MIC: 0.125 µg/mL (≈ 0.0984 µM)
Candida auris strains; 48 h, strain 4 VCPI 683/P/12, 48 h
  MIC: 0.25 µg/mL (≈ 0.197 µM)
Candida auris strains; 48 h, strain 5 VCPI 692/P/12, 48 h
  MIC: 0.25 µg/mL (≈ 0.197 µM)
Candida auris strains; 48 h, strain 6 VCPI 712/P/12, 48 h
  MIC: 0.125 µg/mL (≈ 0.0984 µM)
Candida auris strains; 48 h, strain 7 VCPI 471/P/13, 48 h
  MIC: 0.25 µg/mL (≈ 0.197 µM)
Candida auris strains; 48 h, strain 8 VCPI 475/P/13, 48 h
  MIC: 0.25 µg/mL (≈ 0.197 µM)
Candida auris strains; 48 h, strain 9 VCPI 478/P/13, 48 h
  MIC: 0.125 µg/mL (≈ 0.0984 µM)
Candida auris strains; 48 h, strain 10 VCPI 479/P/13, 48 h
  MIC: 0.125 µg/mL (≈ 0.0984 µM)
Candida auris strains; 48 h, strain 11 VCPI 480/P/13, 48 h
  MIC: 0.125 µg/mL (≈ 0.0984 µM)
Candida auris strains; 48 h, strain 12 VCPI 482/P/13, 48 h
  MIC: 0.125 µg/mL (≈ 0.0984 µM)
Candida auris strains; 48 h, strain 13 VCPI 483/P/13, 48 h
  MIC: 0.125 µg/mL (≈ 0.0984 µM)
Candida auris strains; 48 h, strain 14 VCPI 1130/P/13, 48 h
  MIC: 0.125 µg/mL (≈ 0.0984 µM)
Candida auris strains; 48 h, strain 15 VCPI 1132/P/13, 48 h
  MIC: 0.125 µg/mL (≈ 0.0984 µM)
Candida auris strains; 48 h, strain 16 VCPI 1133/P/13, 48 h
  MIC: > 16 µg/mL
Candida auris strains; 48 h, strain 17 VCPI 105/P/14, 48 h
  MIC: 0.125 µg/mL (≈ 0.0984 µM)
Candida auris strains; 48 h, strain 18 VCPI 107/P/14, 48 h
  MIC: 0.06 µg/mL (≈ 0.0472 µM)
Candida auris strains; 48 h, strain 19 VCPI 510/P/14, 48 h
  MIC: 0.125 µg/mL (≈ 0.0984 µM)
Candida auris strains; 48 h, strain 20 VCPI 511/P/14, 48 h
  MIC: 0.125 µg/mL (≈ 0.0984 µM)
Candida auris strains; 48 h, strain 21 VCPI 512/P/14, 48 h
  MIC: 0.125 µg/mL (≈ 0.0984 µM)
Candida auris strains; 48 h, strain 22 VCPI 513/P/14, 48 h
  MIC: 0.25 µg/mL (≈ 0.197 µM)
Candida auris strains; 48 h, strain 23 VCPI 514/P/14, 48 h
  MIC: 0.25 µg/mL (≈ 0.197 µM)
Candida auris strains; 48 h, strain 24 VCPI 250/P/14, 48 h
  MIC: 0.125 µg/mL (≈ 0.0984 µM)
Candida auris strains; 48 h, strain 25 VCPI 265/P/14, 48 h
  MIC: > 16 µg/mL
Candida auris strains; 48 h, strain 26 VCPI 266/P/14, 48 h
  MIC: 0.125 µg/mL (≈ 0.0984 µM)
Candida auris strains; 48 h, strain 27 VCPI 462/P/14, 48 h
  MIC: > 16 µg/mL
Candida auris strains; 48 h, strain 28 VCPI 463/P/14, 48 h
  MIC: 0.125 µg/mL (≈ 0.0984 µM)
Candida auris strains; 48 h, strain 29 VCPI 467/P/14, 48 h
  MIC: 0.25 µg/mL (≈ 0.197 µM)
Candida auris strains; 48 h, strain 31 VCPI 478/P/14, 48 h
  MIC: 0.5 µg/mL (≈ 0.394 µM)
Candida auris strains; 48 h, strain 32 VCPI 518/P/14, 48 h
  MIC: 0.5 µg/mL (≈ 0.394 µM)
Candida auris strains; 48 h, strain 33 VCPI 550/P/14, 48 h
  MIC: 0.5 µg/mL (≈ 0.394 µM)
Candida auris strains; 48 h, strain 34 VCPI 714/P/14, 48 h
  MIC: 0.25 µg/mL (≈ 0.197 µM)
Candida auris strains; 48 h, strain 35 VCPI 717/P/14, 48 h
  MIC: 0.125 µg/mL (≈ 0.0984 µM)
Candida auris strains; 48 h, strain 36 VCPI 1060/P/14, 48 h
  MIC: 0.25 µg/mL (≈ 0.197 µM)
Candida auris strains; 48 h, strain 37 VCPI 74/P/15, 48 h
  MIC: 0.25 µg/mL (≈ 0.197 µM)
Candida auris strains; 48 h, strain 38 VCPI 213/P/15, 48 h
  MIC: 0.25 µg/mL (≈ 0.197 µM)
Candida auris strains; 48 h
  MIC: > 16 µg/mL

Source: patent US20190307843A1, “SINGLE DOSE METHODS FOR PREVENTING AND TREATING FUNGAL INFECTIONS” (Cidara Therapeutics, Inc., priority 2016, published 2019)
